Results: paper PMC7129073 (Clinical Microbiology and Infection, 2015)
In brackets after ≈: the same amount, converted by molar mass.

Columns and labels:
[1] = system: group A beta-haemolytic streptococcal (GABHS) pharyngitis; assay: Phase III trial, GABHS pharyngitis/tonsillitis; format: in vivo, human
[2] = system: E. coli (Ec); assay: E-test, recurrent UTI isolates of children; format: cell-based, Escherichia coli
[3] = Phase 3 trial, complicated intra-abdominal infections; format: in vivo, human
[4] = system: CA-MRSA; assay: MIC, MBC; format: cell-based, Staphylococcus aureus; settings: time kill, two strains
[5] = system: MDR-MRSA; assay: MIC, MBC; format: cell-based, Staphylococcus aureus; settings: time kill, two strains
[6] = system: Escherichia coli; assay: Vitek 2 susceptibility, urine isolates of children; format: cell-based
[7] = system: K. pneumoniae; assay: MIC; format: cell-based, Klebsiella pneumoniae; settings: Klebsiella pneumoniae
[8] = system: Salmonella serotype Enteritidis; assay: Disk diffusion, food isolates Spain; format: cell-based; settings: n = 96
[9] = system: Salmonella serotype Typhimurium; assay: Disk diffusion, food isolates Spain; format: cell-based; settings: n = 53
[10] = system: Salmonella, other 49 serotypes; assay: Disk diffusion, food isolates Spain; format: cell-based; settings: n = 115
[11] = system: Nocardia spp.; assay: E-test on Mueller Hinton agar, 81 clinical isolates; format: cell-based
[12] = system: Acinetobacter; assay: Disk diffusion; format: cell-based; settings: 37 isolates selected as resistant to beta-lactams
[13] = system: Nocardia spp.; assay: Time-kill at peak-serum concentrations, seven strains; format: cell-based; settings: of seven strains; 24, 72 h
[14] = system: inducible Enterobacteriaceae; assay: SMART 2003, intraabdominal isolates; format: cell-based
[15] = system: Enterobacteriaceae; assay: SMART 2003 Europe, microdilution; format: cell-based; settings: 1948 isolates
[16] = system: E. coli; assay: SMART 2003 Europe, microdilution; format: cell-based, Escherichia coli; settings: 1106 isolates
[17] = system: Klebsiella; assay: SMART 2003 Europe, microdilution; format: cell-based, Klebsiella spp.; settings: 341 isolates
[18] = system: Pseudomonas aeruginosa; assay: MIC, strains from cystic fibrosis patients; settings: by MIC
[19] = system: P. aeruginosa; assay: Disk diffusion, urine isolates of BPH patients
[20] = system: H. influenzae; assay: Broth microdilution; format: cell-based, Haemophilus influenzae; settings: 267 isolates
[21] = system: S. pneumoniae; assay: Broth microdilution; format: cell-based, Streptococcus pneumoniae; settings: 275 isolates
[22] = system: Shigella spp.; assay: Disk diffusion, stool isolates Tehran; format: cell-based; settings: 96 isolates
[23] = system: biofilms of S. aureus (SA204 and SA195) and S. epidermidis (ATCC35983 and ATCC35984); assay: Antibiotic lock, in vitro biofilm on polyurethane film, viable counts; format: cell-based, Staphylococcus species; settings: any of the time intervals examined
[24] = system: MSSA; assay: Agar dilution MIC; format: cell-based, Staphylococcus aureus
[25] = system: Salmonella spp.; assay: Agar dilution susceptibility, gastroenteritis isolates Cuba; format: cell-based; settings: 34 strains, 2002
[26] = system: Escherichia coli O157:H7; assay: Kirby-Bauer susceptibility; format: cell-based; settings: 30 strains, 1990–2003
[27] = system: S. pneumoniae (SPN); assay: SENTRY Brazil, NCCLS broth microdilution; format: cell-based, Streptococcus pneumoniae
[28] = system: H. influenzae (HI); assay: SENTRY Brazil, NCCLS broth microdilution; format: cell-based, Haemophilus influenzae
[29] = system: nontyphoidal Salmonella; assay: Agar dilution, isolates from chickens 1998–2004; format: cell-based, Salmonella spp.

SMILES: CC[C@H]1OC(=O)[C@H](C)[C@@H](O[C@H]2C[C@@](C)(OC)[C@@H](O)[C@H](C)O2)[C@H](C)[C@@H](O[C@@H]2O[C@H](C)C[C@H](N(C)C)[C@H]2O)[C@](C)(O)C[C@@H](C)CN(C)[C@H](C)[C@@H](O)[C@]1(C)O [3-day azithromycin, azithromycin]
- bacteriologic eradication at TOC (Day 24–28) ([1]; BPP population, single 2.0 g dose vs 500 mg QD for 3 days): 81.4%
- clinical cure ([1]; TOC): 96.7%
- bacteriologic recurrence at long-term follow up (Day 38–45) ([1]; in vivo): 7.7%
- diarrhoea/loose stools ([1]; most frequent adverse event): 11%

SMILES: Cc1cc(NS(=O)(=O)c2ccc(N)cc2)no1 [Sulfa, sulfamethoxazol]
- MIC of sensitive isolates carrying sulI and sulII ([2]; 3 isolates): 8 µg/mL
- MIC of sensitive strains without the three genes ([2]; 6 strains): 12 to 32 µg/mL
- resistant isolates ([2]; 20 out of 29): 65.5%

SMILES: CN(C)c1cc(NC(=O)CNC(C)(C)C)c(O)c2c1C[C@H]1C[C@H]3[C@H](N(C)C)C(O)=C(C(N)=O)C(=O)[C@@]3(O)C(O)=C1C2=O [TGC, tigecycline]
- clinical cure rate at TOC, ME group ([3]; TGC 100 mg then 50 mg q12h iv, IMI/CIS 500/500 mg q6h, 5–14 days): 80.6%
- nausea ([3]; adverse events): 31.0%
- vomiting ([3]; adverse events): 25.7%
- clinical cure rate at TOC, m-mITT cohort ([3]; same regimens): 73.5%
- Δ Log10 CFU/ml [4]: −2.37 Log10 CFU/ml
- Δ Log10 CFU/ml [5]: −2.59 Log10 CFU/ml

SMILES: NCC[C@H](O)C(=O)N[C@@H]1C[C@H](N)[C@@H](O[C@H]2O[C@H](CN)[C@@H](O)[C@H](O)[C@H]2O)[C@H](O)[C@H]1O[C@H]1O[C@H](CO)[C@@H](O)[C@H](N)[C@H]1O [amikacin]
- susceptibility rate ([6]; paediatric surgical unit (PSU)): 62%
- susceptibility rate ([6]; paediatric units (PU)): 99%
- MIC [7]: 4 µg/mL (≈ 6.83 µM)
- resistance rate (NCCLS M100-S13) [8]: 1%
- resistance rate (NCCLS M100-S13) [9]: 0%
- resistance rate (NCCLS M100-S13) [10]: 0%
- MIC50 ([11]; Nocardia): 0.38 µg/mL (≈ 0.649 µM)
- MIC90 ([11]; Nocardia): 1 µg/mL (≈ 1.71 µM)
- MIC range ([11]; read after 48 and 72 h): 0.016 to 2 µg/mL
- resistant isolates [12]: 62.1%
- strains with bactericidal activity (≥3 log10 cfu/ml decrease) [13]: 7 strains
- % susceptible ([14]; A/P (N = 200)): 91%
- % susceptible ([14]; EU (N = 354)): 99%
- % susceptible ([14]; NA (N = 163)): 99%
- per cent susceptible [15]: 99%
- per cent susceptible [16]: 99%
- per cent susceptible [17]: 98%
- Susceptible isolates [18]: 100%

SMILES: CC1(C)S[C@@H]2[C@H](NC(=O)[C@H](NC(=O)N3CCNC3=O)c3ccccc3)C(=O)N2[C@H]1C(=O)O [azlocillin]
- resistance [19]: 73.3%

SMILES: N[C@@H](C(=O)N[C@@H]1C(=O)N2C(C(=O)O)=C(Cl)CS[C@H]12)c1ccccc1 [cefaclor]
- susceptible [20]: 92.1%
- Susceptibility [21]: 82.5%

SMILES: Cc1nnc(SCC2=C(C(=O)O)N3C(=O)[C@@H](NC(=O)Cn4cnnn4)[C@H]3SC2)s1 [cefazolin]
- sensitive [22]: 80%
- significant biofilm killing [23]: not achieved
- MIC50 ([24]; Staphylococcus aureus, MSSA): < 0.5 µg/mL
- MIC90 ([24]; Staphylococcus aureus, MSSA): < 1 µg/mL
- MIC range ([24]; n = 200): 250 to 1000 µg/mL

SMILES: CC=CC1=C(C(=O)O)N2C(=O)[C@@H](NC(=O)[C@H](N)c3ccc(O)cc3)[C@H]2SC1 [cefprozil]
- susceptible [20]: 93.3%
- Susceptibility [21]: 87.3%

SMILES: O=C(N[C@H](CO)[C@H](O)c1ccc([N+](=O)[O-])cc1)C(Cl)Cl [chloramphenicol]
- resistance [25]: 41%
- resistant strains [26]: 6%
- % S [27]; 1998: 99%
- % S [27]; 1999: 98%
- % S [27]; 2000: 99%
- % S [27]; 2001: 100%
- % S [27]; 2002: 99%
- % S [27]; 2003: 100%
- % S [28]; 1998: 96%
- % S [28]; 1999: 99%
- % S [28]; 2000: 97%
- % S [28]; 2001: 95%
- % S [28]; 2002: 93%
- % S [28]; 2003: 96%
- resistant isolates [12]: 100.0%
- resistance ([29]; Belgian collection (caecal samples; Belgium, France, Netherlands)): 8%
- resistance ([29]; Germany (carcass meat)): 4%
